Experimental data published in patent US8580782B2, “Substituted pyrazolo[1,5-a]pyrimidines as cyclin dependent kinase inhibitors” (Merck Sharp & Dohme Corp., priority 2002, dated 2013).

molecular target: CDK2 (cyclin A or cyclin E complex) (Homo sapiens (Human), UniProt P24941); experiment: CDK2 in vitro kinase assay (either cyclin A or E-dependent), SPA with biotinylated Histone H1 peptide and 33P-ATP; assay type: biochemical; settings: Table 87
Description: Assay: • Baculovirus Constructions: Cyclins A and E were cloned into pFASTBAC (Invitrogen) by PCR, with the addition of a GluTAG sequence (EYMPME) at the amino-terminal end to allow purification on anti-GluTAG affinity columns. The expressed proteins were approximately 46 kDa (cyclin E) and 50 kDa (cyclin A) in size. CDK2 was also cloned into pFASTBAC by PCR, with the addition of a haemaglutinin epitope tag at the carboxy-terminal end ([sequence]). The expressed protein was approximately 34 kDa in size. • Enzyme Production: Recombinant baculoviruses expressing cyclins A, E and CDK2 were infected into SF9 cells at a multiplicity of infection (MOI) of 5, for 48 hrs. Cells were harvested by centrifugation at 1000 RPM for 10 minutes. Cyclin-containing (E or A) pellets were combined with CDK2 containing cell pellets and lysed on ice for 30 minutes in five times the pellet volume of lysis buffer containing 50 mM Tris pH 8.0, 0.5% NP40, 1 mM DTT and protease/phosphatase inhibitors (Roche Diagnostics GmbH, Mannheim, Germany). Mixtures were stirred for 30-60 minutes to promote cyclin-CDK2 complex formation. Mixed lysates were then spun down at 15000 RPM for 10 minutes and the supernatant retained. 5 ml of anti-GluTAG beads (for one liter of SF9 cells) were then used to capture cyclin-CDK2 complexes. Bound beads were washed three times in lysis buffer. Proteins were competitively eluted with lysis buffer containing 100-200 ug/mL of the GluTAG peptide. Eluate was dialyzed overnight in 2 liters of kinase buffer containing 50 mM Tris pH 8.0, 1 mM DTT, 10 mM MgCl2, 100 uM sodium orthovanadate and 20% glycerol. Enzyme was stored in aliquots at −70° C. • In Vitro Kinase Assay: CDK2 kinase assays (either cyclin A or E-dependent) were performed in low protein binding 96-well plates (Corning Inc, Corning, N.Y.). Enzyme was diluted to a final concentration of 50 μg/ml in kinase buffer containing 50 mM Tris pH 8.0, 10 mM MgCl2, 1 mM DTT, and 0.1 mM sodium orthovanadate. The substrate used in these reactions was a biotinylated peptide derived from Histone H1 (from Amersham, UK). The substrate was thawed on ice and diluted to 2 μM in kinase buffer. Compounds were diluted in 10% DMSO to desirable concentrations. For each kinase reaction, 20 μl of the 50 μg/ml enzyme solution (1 μg of enzyme) and 20 μl of the 1 μM substrate solution were mixed, then combined with 10 μl of diluted compound in each well for testing. […] The reaction was allowed to run for 1 hour at room temperature. The reaction was stopped by adding 200 μl of stop buffer containing 0.1% Triton X-100, 1 mM ATP, 5 mM EDTA, and 5 mg/ml streptavidine coated SPA beads (from Amersham, UK) for 15 minutes. The SPA beads were then captured onto a 96-well GF/B filter plate (Packard/Perkin Elmer Life Sciences) using a Filtermate universal harvester (Packard/Perkin Elmer Life Sciences.). Non-specific signals were eliminated by washing the beads twice with 2M NaCl then twice with 2 M NaCl with 1% phosphoric acid. The radioactive signal was then measured using a TopCount 96 well liquid scintillation counter (from Packard/Perkin Elmer Life Sciences). • IC50 Determination: Dose-response curves were plotted from inhibition data generated, each in duplicate, from 8 point serial dilutions of inhibitory compounds. Concentration of compound was plotted against % kinase activity, calculated by CPM of treated samples divided by CPM of untreated samples. To generate IC50 values, the dose-response curves were then fitted to a standard sigmoidal curve and IC50 values were derived by nonlinear regression analysis. These kinase activities were generated by using cyclin A or cyclin E using the above-described assay.

| Compound | IC50 [nM] |
| --- | --- |
| Fc1ccccc1-c1cc(NCc2cccnc2)n2ncc(Br)c2n1 [Example 4] | 11 |
| Fc1ccccc1-c1cc(NCc2cccnc2)n2ncc(Cl)c2n1 [Example 5] | 21 |
| Clc1ccccc1-c1cc(NCc2cccnc2)n2ncc(Br)c2n1 [Example 8] | 3 |
| CC(C)(C)c1cc(NCc2ccncc2)n2ncc(Br)c2n1 [Example 12] | 170 |

Now from value to compound:

| IC50 [nM] | Compound |
| --- | --- |
| 42 | CC(C)c1cc(NCc2ccncc2)n2ncc(Br)c2n1 [Example 10] |
| 620 | N#Cc1cnn2c(NCc3ccncc3)cc(-c3ccccc3)nc12 [Example 16] |
